For one data set, the system named is A549 cells. As to the kind of experiment: MTT cytotoxicity assay, A549. The format is cell-based. The conditions noted are these: Homo sapiens, 72 h. The method, then:
(§1) The results expressed as IC50 values were summarized in Table 1, and the values were the average of at least two independent experiments.
(§2) The cancer cell lines were cultured in minimum essential medium (MEM) supplement with 10% fetal bovine serum (FBS). […] The test compounds at indicated final concentrations were added to the culture medium and the cell cultures were continued for 72 h. […] All of the compounds were tested two times in each of the cell lines. The results expressed as inhibition rates or IC50 (half-maximal inhibitory concentration) were the averages of two determinations and calculated by using the Bacus Laboratories Incorporated Slide Scanner (Bliss) software (the Bacus Laboratories Inc. Slide Scanner (BLISS) system, Lombard, IL, USA)..
Background: Tetrazolium dyes change colour on reduction, which living cells bring about.

In another data set the test system is MCF-7 cells. As to the kind of experiment: MTT cytotoxicity assay, MCF-7. The format is cell-based. The conditions noted are these: Homo sapiens, MCF7, 72 h. The method, then:
as §1, §2

In the next data set the test system is HepG2 cells. As to the kind of experiment: MTT cytotoxicity assay, HepG2. The format is cell-based. Conditions: Homo sapiens, 72 h. As to the method: as §1
The cancer cell lines were cultured in minimum essential medium (MEM) supplement with 10% fetal bovine serum (FBS). Approximately 4 × 10^3 cells, suspended in MEM medium, were plated onto each well of a 96-well plate and incubated in 5% CO2 at 37 °C for 24 h. The test compounds at indicated final concentrations were added to the culture medium and the cell cultures were continued for 72 h. Fresh MTT was added to each well at a terminal concentration of 5 μg/mL and incubated with cells at 37 °C for 4 h. The formazan crystals were dissolved in 100 μL DMSO each well, and the absorbency at 492 nm (for absorbance of MTT formazan) and 630 nm (for the reference wavelength) was measured with the ELISA reader. All of the compounds were tested two times in each of the cell lines. The results expressed as inhibition rates or IC50 (half-maximal inhibitory concentration) were the averages of two determinations and calculated by using the Bacus Laboratories Incorporated Slide Scanner (Bliss) software (the Bacus Laboratories Inc. Slide Scanner (BLISS) system, Lombard, IL, USA)..

Another data set has as its target c-Met kinase (Homo sapiens, UniProt P08581). Put plainly: c-Met kinase inhibition assay (HTRF; mobility shift). A general note: Time-resolved FRET reads energy transfer from a long-lived donor to a nearby acceptor.

The term melting point denotes the temperature of the solid-liquid transition. As a reminder, the IC50 is the concentration needed to halve the response being measured.

c-Met kinase, sequence (P08581 25-1390): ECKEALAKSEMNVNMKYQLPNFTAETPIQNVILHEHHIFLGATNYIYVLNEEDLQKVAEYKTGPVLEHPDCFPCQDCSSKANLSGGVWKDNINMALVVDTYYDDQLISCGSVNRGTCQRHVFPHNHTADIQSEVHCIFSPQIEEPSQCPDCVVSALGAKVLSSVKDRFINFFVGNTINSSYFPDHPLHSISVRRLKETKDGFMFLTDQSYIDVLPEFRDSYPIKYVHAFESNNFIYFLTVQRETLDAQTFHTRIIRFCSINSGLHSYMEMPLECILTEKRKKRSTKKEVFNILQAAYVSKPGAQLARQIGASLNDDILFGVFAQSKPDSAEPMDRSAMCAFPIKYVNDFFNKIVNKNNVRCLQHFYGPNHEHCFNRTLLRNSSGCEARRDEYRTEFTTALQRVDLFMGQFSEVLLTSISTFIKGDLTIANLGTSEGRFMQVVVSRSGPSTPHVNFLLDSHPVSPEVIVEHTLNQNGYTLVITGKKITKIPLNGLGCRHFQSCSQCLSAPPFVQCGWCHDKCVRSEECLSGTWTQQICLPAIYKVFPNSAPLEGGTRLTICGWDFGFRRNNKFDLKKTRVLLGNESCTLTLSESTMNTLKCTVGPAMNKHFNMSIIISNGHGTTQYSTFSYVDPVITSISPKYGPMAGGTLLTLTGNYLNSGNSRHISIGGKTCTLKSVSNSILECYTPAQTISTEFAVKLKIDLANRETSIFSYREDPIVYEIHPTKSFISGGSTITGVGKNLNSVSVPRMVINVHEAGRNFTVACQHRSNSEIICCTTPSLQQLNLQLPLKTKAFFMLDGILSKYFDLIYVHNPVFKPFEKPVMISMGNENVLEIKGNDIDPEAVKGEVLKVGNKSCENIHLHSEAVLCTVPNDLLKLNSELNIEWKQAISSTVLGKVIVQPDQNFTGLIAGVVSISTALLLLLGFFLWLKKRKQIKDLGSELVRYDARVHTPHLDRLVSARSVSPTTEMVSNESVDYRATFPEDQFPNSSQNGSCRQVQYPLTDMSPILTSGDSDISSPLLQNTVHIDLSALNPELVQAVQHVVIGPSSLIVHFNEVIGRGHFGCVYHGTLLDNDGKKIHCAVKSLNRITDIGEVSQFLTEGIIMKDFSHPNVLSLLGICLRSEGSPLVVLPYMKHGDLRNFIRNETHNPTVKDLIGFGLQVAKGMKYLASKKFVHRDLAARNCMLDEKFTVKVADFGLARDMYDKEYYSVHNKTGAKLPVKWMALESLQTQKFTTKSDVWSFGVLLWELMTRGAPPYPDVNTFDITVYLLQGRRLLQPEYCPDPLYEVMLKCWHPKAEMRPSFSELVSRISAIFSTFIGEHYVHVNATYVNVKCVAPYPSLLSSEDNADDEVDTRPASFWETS
Experimental for c-Met kinase: All kinase assays were performed in 96-well plates in a 50 µL reaction volume. The kinase buffer contains 50 mM HEPES, pH 7.5, 10 mM MgCl2, 0.0015% Brij-35 and 2 mM DTT. The stop buffer contains 100 mM HEPES, pH 7.5, 0.015% Brij-35, 0.2% Coating Reagent 3 and 50 mM EDTA. Dilute the compounds to 500 µM by 100% DMSO, then transfer 10 µL of compound to a new 96-well plate as the intermediate plate, add 90 µL kinase buffer to each well. Transfer 5 µL of each well of the intermediate plate to 384-well plates. The following amounts of enzyme and substrate were used per well: kinase base buffer, FAM-labeled peptide, ATP and enzyme solution. Wells containing the substrate, enzyme, DMSO without compound were used as DMSO control. Wells containing just the substrate without enzyme were used as low control. Incubate at room temperature for 10 min. Add 10 µL peptide solution to each well. […] At last collect data on Caliper program and convert conversion values to inhibition values. Percent inhibition = (max − conversion)/(max − min) × 100. ‘max’ stands for DMSO control; ‘min’ stands for low control [20].

For the compound `COc1cc2c(Oc3ccc(NC(=O)c4nn(-c5ccc(F)cc5)ccc4=O)cc3F)ccnc2cc1OCCCN1CCOCC1` [Compound 22], the melting point fell in the range of 152.3 to 153.5 °C. For the same compound, the IC50 in the data set on A549 cells came to 250 ± 10 nM. This compound displayed an IC50 in the data set with MCF-7 cells of 210 ± 20 nM. Further, the IC50 with HepG2 cells stood at 2230 ± 350 nM. Moreover, the IC50 at c-Met kinase was found to be 47 nM.

As for `COc1cc2c(Oc3ccc(NC(=O)c4nn(-c5ccc(Cl)cc5)ccc4=O)cc3F)ccnc2cc1OCCCN1CCOCC1` [Compound 23, 1-(4-Chlorophenyl)-N-(3-fluoro-4-((6-methoxy-7-(3-morpholinopropoxy)quinolin-4-yl)oxy)phenyl)-4-oxo-1,4-dihydropyridazine-3-carboxamide], the melting point was 138.2 to 139.1 °C. The IC50 in the data set on A549 cells was above 50000 nM. The compound also displayed an IC50 with MCF-7 cells above 50000 nM. In addition, in the data set with HepG2 cells, the IC50 was above 50000 nM. At c-Met kinase, the IC50 is above 500 nM.

`COc1cc2c(Oc3ccc(NC(=O)c4nn(-c5ccc(Br)cc5)ccc4=O)cc3F)ccnc2cc1OCCCN1CCOCC1` [Compound 24, 1-(4-Bromophenyl)-N-(3-fluoro-4-((6-methoxy-7-(3-morpholinopropoxy)quinolin-4-yl)oxy)phenyl)-4-oxo-1,4-dihydropyridazine-3-carboxamide] yielded a melting point of 125.7 to 127.1 °C. This compound also came in with an IC50 in the data set on A549 cells above 50000 nM. In the data set on MCF-7 cells, the IC50 is above 50000 nM. In the data set on HepG2 cells, this compound yielded an IC50 above 50000 nM. On c-Met kinase, the IC50 is above 500 nM.

The compound `COc1ccc(-n2ccc(=O)c(C(=O)Nc3ccc(Oc4ccnc5cc(OCCCN6CCOCC6)c(OC)cc45)c(F)c3)n2)cc1` [Compound 25, N-(3-Fluoro-4-((6-methoxy-7-(3-morpholinopropoxy)quinolin-4-yl)oxy)phenyl)-1-(4-methoxyphenyl)-4-oxo-1,4-dihydropyridazine-3-carboxamide] yielded a melting point of 153.8 to 155.2 °C. In the data set on A549 cells, this compound registered a half-inhibitory concentration (IC50) of 4240 ± 620 nM. In the data set on MCF-7 cells, this compound yielded an IC50 of 27200 ± 1440 nM. Further, the IC50 in the data set on HepG2 cells came out at 6750 ± 820 nM. For the same compound, the IC50 at c-Met kinase was found to be 233 nM.

Turning to `COc1cc2c(Oc3ccc(NC(=O)c4nn(-c5ccc(F)c(Cl)c5)ccc4=O)cc3F)ccnc2cc1OCCCN1CCOCC1` [Compound 26, 1-(3-Chloro-4-fluorophenyl)-N-(3-fluoro-4-((6-methoxy-7-(3-morpholinopropoxy)quinolin-4-yl)oxy)phenyl)-4-oxo-1,4-dihydropyridazine-3-carboxamide], the melting point lay within 138.1 to 140.6 °C. In the data set on A549 cells, this compound returned an IC50 of 3700 ± 570 nM. Further, inhibition in the data set on MCF-7 cells was half-maximal at 5960 ± 770 nM (IC50). In the data set with HepG2 cells, this compound had a concentration for half-maximal inhibition (IC50) above 50000 nM. For the same compound, at c-Met kinase, the IC50 worked out at 352 nM.

The compound `COc1cc2c(Oc3ccc(NC(=O)c4nn(-c5ccc(Br)cc5F)ccc4=O)cc3F)ccnc2cc1OCCCN1CCOCC1` [Compound 27, 1-(4-Bromo-2-fluorophenyl)-N-(3-fluoro-4-((6-methoxy-7-(3-morpholinopropoxy)quinolin-4-yl)oxy)phenyl)-4-oxo-1,4-dihydropyridazine-3-carboxamide] displayed a melting point of 113.7 to 115.1 °C. For the same compound, the IC50 in the data set on A549 cells is above 50000 nM. In the data set on MCF-7 cells, this compound displayed an IC50 above 50000 nM. The compound also came in with an IC50 with HepG2 cells above 50000 nM. For the same compound, on c-Met kinase, the IC50 amounted to 478 nM.

In the case of `COc1cc2c(Oc3ccc(NC(=O)c4nn(-c5ccc(Cl)c(C(F)(F)F)c5)ccc4=O)cc3F)ccnc2cc1OCCCN1CCOCC1` [Compound 28, 1-(4-Chloro-3-(trifluoromethyl)phenyl)-N-(3-fluoro-4-((6-methoxy-7-(3-morpholinopropoxy)quinolin-4-yl)oxy)phenyl)-4-oxo-1,4-dihydropyridazine-3-carboxamide], the melting point was in the range of 203.5 to 204.7 °C. The compound also displayed an IC50 in the data set with A549 cells of 5250 ± 720 nM. Further, in the data set with MCF-7 cells, it took 7490 ± 870 nM to reach half-maximal inhibition (IC50). The same compound registered an IC50 in the data set with HepG2 cells above 50000 nM. Besides, the IC50 at c-Met kinase turned out to be 382 nM.

`COc1cc2c(Oc3ccc(NC(=O)c4nn(-c5ccccc5)ccc4=O)cc3F)ccnc2cc1OCCCN1CCOCC1` [Compound 29, N-(3-Fluoro-4-((6-methoxy-7-(3-morpholinopropoxy)quinolin-4-yl)oxy)phenyl)-4-oxo-1-phenyl-1,4-dihydropyridazine-3-carboxamide] had a melting point of 118.7 to 119.8 °C. In addition, in the data set with A549 cells, 200 ± 20 nM corresponded to half-maximal inhibition (IC50). For the same compound, the IC50 in the data set on MCF-7 cells worked out at 30 ± 10 nM. In addition, in the data set on HepG2 cells, the IC50 turned out to be 2270 ± 360 nM. Moreover, the IC50 at c-Met kinase was 16 nM.

In the case of `COc1cc2c(Oc3ccc(NC(=O)c4nn(-c5ccc(F)cc5)ccc4=O)cc3F)ccnc2cc1OCCCN1CCCCC1` [Compound 30, N-(3-Fluoro-4-((6-methoxy-7-(3-(piperidin-1-yl)propoxy)quinolin-4-yl)oxy)phenyl)-1-(4-fluorophenyl)-4-oxo-1,4-dihydropyridazine-3-carboxamide], the melting point was in the range of 149.4 to 151.1 °C. In the data set with A549 cells, this compound showed an IC50 of 310 ± 10 nM. In the data set on MCF-7 cells, the IC50 was determined as 690 ± 20 nM. The compound also had a half-maximal inhibitory concentration (IC50) in the data set on HepG2 cells of 990 ± 10 nM. In addition, the IC50 on c-Met kinase came to 17 nM.

In the case of `COc1cc2c(Oc3ccc(NC(=O)c4nn(-c5ccc(Cl)cc5)ccc4=O)cc3F)ccnc2cc1OCCCN1CCCCC1` [Compound 31, 1-(4-Chlorophenyl)-N-(3-fluoro-4-((6-methoxy-7-(3-(piperidin-1-yl)propoxy)quinolin-4-yl)oxy)phenyl)-4-oxo-1,4-dihydropyridazine-3-carboxamide], the melting point lay in the range of 158.2 to 159.6 °C. In the data set on A549 cells, this compound gave an IC50 of 570 ± 20 nM. The same compound had an IC50 with MCF-7 cells of 1160 ± 60 nM. Further, half-maximal inhibition in the data set on HepG2 cells (IC50) required 690 ± 30 nM. Also, the IC50 on c-Met kinase was 78 nM.

Take `COc1cc2c(Oc3ccc(NC(=O)c4nn(-c5ccc(F)cc5)ccc4=O)cc3F)ccnc2cc1OCCCN1CCN(C)CC1` [Compound 46, N-(3-Fluoro-4-((6-methoxy-7-(3-(4-methylpiperazin-1-yl)propoxy)quinolin-4-yl)oxy)phenyl)-1-(4-fluorophenyl)-4-oxo-1,4-dihydropyridazine-3-carboxamide]: the IC50 in the data set on A549 cells turned out to be 1640 ± 220 nM; with MCF-7 cells, 1660 ± 220 nM; in the data set on HepG2 cells it was 7510 ± 870 nM; at c-Met kinase, 39 nM.

For `COc1cc2c(Oc3ccc(NC(=O)c4nn(-c5ccc(F)c(Cl)c5)ccc4=O)cc3F)ccnc2cc1OCCCN1CCN(C)CC1` [Compound 50, 1-(3-Chloro-4-fluorophenyl)-N-(3-fluoro-4-((6-methoxy-7-(3-(4-methylpiperazin-1-yl)propoxy)quinolin-4-yl)oxy)phenyl)-4-oxo-1,4-dihydropyridazine-3-carboxamide], the IC50 is 20 ± 10 nM with A549 cells, 20 ± 10 nM in the data set on MCF-7 cells, 2460 ± 390 nM in the data set on HepG2 cells and 2 nM at c-Met kinase.

As to `COc1cc2c(Oc3ccc(NC(=O)c4nn(-c5ccc(Br)cc5F)ccc4=O)cc3F)ccnc2cc1OCCCN1CCN(C)CC1` [Compound 51, 1-(4-Bromo-2-fluorophenyl)-N-(3-fluoro-4-((6-methoxy-7-(3-(4-methylpiperazin-1-yl)propoxy)quinolin-4-yl)oxy)phenyl)-4-oxo-1,4-dihydropyridazine-3-carboxamide], the half-inhibitory concentration (IC50) in the data set on A549 cells amounted to 5630 ± 750 nM; with MCF-7 cells it was 5430 ± 740 nM; in the data set with HepG2 cells it was 6390 ± 810 nM; at c-Met kinase it was 123 nM.

For the compound `COc1cc2c(Oc3ccc(NC(=O)C4(C(=O)Nc5ccc(F)cc5)CC4)cc3F)ccnc2cc1OCCCN1CCOCC1` [Foretinib, reference compound], the midpoint of inhibition in the data set on HepG2 cells, the IC50, lay at 840 ± 70 nM.

The values above are taken from PMC6099740, “Design, Synthesis and Biological Evaluation of 6,7-Disubstituted-4-phenoxyquinoline Derivatives Bearing Pyridazinone Moiety as c-Met Inhibitors” (Molecules : A Journal of Synthetic Chemistry and Natural …, 2018).
